Data taken from patent publication US7253299B2, “Process for purifying n2-(1(s)-ethoxycarbonyl-3-phenylpropyl)-n6-thifluoroacetyl-l-lysine” (Kaneka Corporation, priority 2001, dated 2007).

Assay: Solubility of polymorphs in water/acetonitrile mixed solvent (saturated solution, HPLC)
Assay type: physicochemical
Settings: water/acetonitrile mixed solvent (water/acetonitrile volume ratio 0.25), 15° C., ordinary pressure
Description: A 50 ml four-neck flask was charged with 30 ml of a water/acetonitrile mixed solvent (water/acetonitrile volume ratio 0.25). After cooling the solvent to 5° C. with stirring, 5 g of each of polymorphs (I form, […] and […]) of N^2-(1(S)-ethoxycarbonyl-3-phenylpropyl)-N^6-trifluoroacetyl-L-lysine was added thereto, and the temperature was elevated to a predetermined temperature at a rate of 10° C./hour. After reaching the predetermined temperature, the solution was maintained at that temperature for about 1 hour. A sample of the resulting saturated solution was taken out, and the concentration (% by weight) of N^2-(1(S)-ethoxycarbonyl-3-phenylpropyl)-N^6-trifluoroacetyl-L-lysine was measured by HPLC analysis to determine the solubility at that temperature.

solubility | Structure (SMILES)
about 2.7 % by weight | CCOC(=O)[C@H](CCc1ccccc1)N[C@@H](CCCCNC(=O)C(F)(F)F)C(=O)O [II form, N^2-(1(S)-ethoxycarbonyl-3-phenylpropyl)-N^6-trifluoroacetyl-L-lysine]
about 3.1 % by weight | CCOC(=O)[C@H](CCc1ccccc1)N[C@@H](CCCCNC(=O)C(F)(F)F)C(=O)O [III form, N^2-(1(S)-ethoxycarbonyl-3-phenylpropyl)-N^6-trifluoroacetyl-L-lysine]
about 2.5 % by weight | CCOC(=O)[C@H](CCc1ccccc1)N[C@@H](CCCCNC(=O)C(F)(F)F)C(=O)O [I form, N^2-(1(S)-ethoxycarbonyl-3-phenylpropyl)-N^6-trifluoroacetyl-L-lysine]
